Legend:
[1] = test system: PARP-1 cleavage in BJ-TERT/LT/ST/RAS^V12 cells; experiment: Western blot of PARP-1 cleavage upon compound treatment; type: cell-based, human; details: Western blot with anti-PARP-1 antibody
Experimental: 2×10^6 BJ-TERT/LT/ST/RAS^V12 cells were seeded in 10 cm dishes and treated with 1 μM staurosporine, 10 μg/mL erastin, 20 μg/mL Compound 3, and 1 μg/mL Compound 27 for 16 h. Both dying cells and live cells in each 10 cm dish were harvested and collected in the same 15 mL tubes by centrifuging cell suspension at 1,000 rpm for 5 min. Cell pellets were washed three times with PBS and cells were lysed in 200 μL of denaturing lysis buffer (50 mM HEPES KOH [pH 7.4], 40 mM NaCl, 2 mM EDTA, 1.5 mM Na3VO4, 50 mM NaF, 10 mM sodium pyrophosphate, 10 mM sodium β-glycerophosphate, 0.5% Triton X-100, and protease inhibitor tablet [Roche, cat.#11836170001]). Protein content was quantified using a Bio-Rad protein assay reagent (Bio-Rad, cat.#500-00006). Equal amounts of protein were resolved on SDS-polyacrylamide gels. The electrophoresed proteins were transblotted onto a PVDF membrane, blocked with 5% milk, and incubated with rabbit primary antibodies specific to: PARP (Santa Cruz, cat.#sc-7150), cleaved caspase-3 (Cell Signaling Technology, cat.#9661) overnight at 4° C. The membrane was then incubated in IRDye 800 goat anti-rabbit antibody (Li-cor Bioscience cat.#926-32211) at 1:3,000 dilutions for 45 min at room temperature. After washing off the unbound antibodies, membranes were scanned using the Odyssey™ Imaging System (Li-cor Bioscience).

A498 = experiment: NCI60 anti-cancer screening; details: for GI 100% / GI50: A498; for GI 100%: Renal Cancer; for GI50 / CC50: Homo sapiens; for CC50: A498, read-out: LC 50%
HL-60(TB) = details: Leukemia
DU-145 = experiment: NCI60 anti-cancer screening
MCF-7 = experiment: NCI60 anti-cancer screening
A549/ATCC = experiment: NCI60 anti-cancer screening
OVCAR-5 = experiment: NCI60 anti-cancer screening
OVCAR-8 = experiment: NCI60 anti-cancer screening
NCI-H226 = experiment: NCI60 anti-cancer screening
OVCAR-3 = details: Ovarian Cancer
NCI-H460 = experiment: NCI60 anti-cancer screening
IGROV1 = experiment: NCI60 anti-cancer screening
U251 = experiment: NCI60 anti-cancer screening
SK-OV-3 = experiment: NCI60 anti-cancer screening
EKVX = experiment: NCI60 anti-cancer screening
NCI-H322M = experiment: NCI60 anti-cancer screening
HCT-15 = experiment: NCI60 anti-cancer screening
SNB-19 = experiment: NCI60 anti-cancer screening
SK-MEL-5 = experiment: NCI60 anti-cancer screening
SK-MEL-28 = experiment: NCI60 anti-cancer screening
HCC-2998 = experiment: NCI60 anti-cancer screening
CAKI-1 = experiment: NCI60 anti-cancer screening

Question: How did the “PARP-1 cleavage / type of cell death” value [1] turn out when `COCCOC(=O)C1=C(C)NC2=C(C(=O)CC(c3ccc(Cl)cc3)C2)C1c1ccccc1F` (stereo not shown) [Compound 3] was run?
Answer: The value was “activate a non-apoptotic pathway”.

Question: And the “GI 100%” value (A498)?
Answer: The value was over 10 µM.

Question: And the GI50 (A498)?
Answer: The GI50 was 3390 nM.

Question: And the CC50 (A498)?
Answer: The CC50 was over 10 µM.

Question: What about the “GI 100%” value (HL-60(TB)) of the same molecule?
Answer: The value was over 10 µM.

Question: Which results are given for `C=C1CCC2C(C)(C)CCC[C@]2(C)C1CC/C(C)=C\CC/C(C)=N/NC(N)=S` (stereo partly shown) [Compound 36]?
Answer: GI 100% (DU-145; DU-145, Prostate Cancer): 2.35 µM; GI50 (DU-145; Homo sapiens, DU-145): 1140 nM; CC50 (DU-145; Homo sapiens, DU-145, read-out: LC 50%): 4.84 µM; GI 100% (A498): 1.29 µM; GI50 (A498): 268 nM; CC50 (A498): 3.85 µM; GI50 (MCF-7; Homo sapiens, MCF7): 265 nM; CC50 (MCF-7; Homo sapiens, MCF7, read-out: LC 50%): 3.83 µM; GI 100% (MCF-7; MCF-7, Breast Cancer): 1.34 µM; GI 100% (A549/ATCC; A549/ATCC, Non-small cell lung carcinoma): 2.4 µM; GI50 (A549/ATCC; Homo sapiens, A549): 1110 nM; CC50 (A549/ATCC; Homo sapiens, A549, read-out: LC 50%): 5.15 µM; GI50 (OVCAR-5; Homo sapiens, OVCAR-5): 492 nM; CC50 (OVCAR-5; Homo sapiens, OVCAR-5, read-out: LC 50%): 4.33 µM; GI 100% (OVCAR-5; OVCAR-5, Ovarian Cancer): 1.62 µM; GI50 (OVCAR-8; Homo sapiens, OVCAR-8): 1160 nM; CC50 (OVCAR-8; Homo sapiens, OVCAR-8, read-out: LC 50%): 7.48 µM; GI 100% (OVCAR-8; OVCAR-8, Ovarian Cancer): 2.94 µM; GI50 (NCI-H226; Homo sapiens, NCI-H226): 480 nM; CC50 (NCI-H226; Homo sapiens, NCI-H226, read-out: LC 50%): 4.55 µM; GI 100% (NCI-H226; NCI-H226, Non-small cell lung carcinoma): 1.66 µM; GI 100% (OVCAR-3): 0.804 µM; GI50 (NCI-H460; Homo sapiens, NCI-H460): 626 nM; CC50 (NCI-H460; Homo sapiens, NCI-H460, read-out: LC 50%): 5.02 µM; GI 100% (NCI-H460; NCI-H460, Non-small cell lung carcinoma): 2.02 µM; GI50 (IGROV1; Homo sapiens, IGROV-1): 254 nM; CC50 (IGROV1; Homo sapiens, IGROV-1, read-out: LC 50%): 4.17 µM; GI 100% (IGROV1; IGROV1, Ovarian Cancer): 1.28 µM; GI50 (U251; Homo sapiens, U-251): 470 nM; CC50 (U251; Homo sapiens, U-251, read-out: LC 50%): 4.12 µM; GI 100% (U251; U251, CNS Cancer): 1.7 µM; GI50 (SK-OV-3; Homo sapiens, SK-OV-3): 1260 nM; CC50 (SK-OV-3; Homo sapiens, SK-OV-3, read-out: LC 50%): 5.2 µM; GI 100% (SK-OV-3; SK-OV-3, Ovarian Cancer): 2.56 µM; GI50 (EKVX; Homo sapiens): 1240 nM; CC50 (EKVX; Homo sapiens, read-out: LC 50%): 5.09 µM; GI 100% (EKVX; Non-small cell lung carcinoma): 2.51 µM; GI50 (NCI-H322M; Homo sapiens): 606 nM; CC50 (NCI-H322M; Homo sapiens, read-out: LC 50%): 4.93 µM; GI 100% (NCI-H322M; Non-small cell lung carcinoma): 1.99 µM; GI 100% (HL-60(TB)): 0.545 µM; GI 100% (HCT-15; HCT-15, Colon Cancer): 1.53 µM; GI50 (HCT-15; Homo sapiens, HCT-15): 305 nM; CC50 (HCT-15; Homo sapiens, HCT-15, read-out: LC 50%): 3.93 µM; GI50 (SNB-19; Homo sapiens, SNB-19): 1050 nM; CC50 (SNB-19; Homo sapiens, SNB-19, read-out: LC 50%): 5 µM; GI 100% (SNB-19; SNB-19, CNS Cancer): 2.29 µM; GI50 (SK-MEL-5; Homo sapiens, SK-MEL-5): 209 nM; CC50 (SK-MEL-5; Homo sapiens, SK-MEL-5, read-out: LC 50%): 3.05 µM; GI 100% (SK-MEL-5; SK-MEL-5, Melanoma): 0.898 µM; GI50 (SK-MEL-28; Homo sapiens, SK-MEL-28): 239 nM; CC50 (SK-MEL-28; Homo sapiens, SK-MEL-28, read-out: LC 50%): 2070 nM; GI 100% (SK-MEL-28; SK-MEL-28, Melanoma): 0.592 µM; GI 100% (HCC-2998; HCC-2998, Colon Cancer): 0.733 µM; GI50 (HCC-2998; Homo sapiens, HCC 2998): 240 nM; CC50 (HCC-2998; Homo sapiens, HCC 2998, read-out: LC 50%): 2680 nM; GI 100% (CAKI-1; CAKI-1, Renal Cancer): 0.413 µM; GI50 (CAKI-1; Homo sapiens, CAKI-1): 165 nM; CC50 (CAKI-1; Homo sapiens, CAKI-1, read-out: LC 50%): 1080 nM

From patent US8546421B1, “Oncogenic-RAS-signal dependent lethal compounds” (The Trustees of Columbia University in the City of New York, priority 2007, dated 2013)
